Test results: US10590413B2, “Chiral control” (WAVE LIFE SCIENCES LTD., priority 2012, dated 2020)
Where two headings read alike, the source gives them in different places. Strand notation (5' to 3'): a small letter for the sugar, then the base; units joined by * are phosphorothioate-linked, units joined directly phosphodiester-linked; [ ] holds rarer units or linkages, { } end groups; capitals alone tell only the bases. d = 2'-deoxy (DNA)

How the values were obtained:
[1] = test system: T cell proliferation; conditions: US 6,218,371 Table 3; cited from earlier work
[2] = test system: CD86; conditions: US 6,218,371 Table 3; cited from earlier work
[3] = test system: CD40; conditions: US 6,218,371 Table 3; cited from earlier work
[4] = test system: (Ap)9A; conditions: duplex with (Ap)9A; cited from earlier work
[5] = test system: TNF-α and IL-12 expression; conditions: cell line 3774, no activator, inhibitor at head concentration: Bafilomycin 250 nM, Chloroquine 2.5 μg/ml, Monensin 10 μM, cited from earlier work; for TNF-α, activator: Medium (inhibitor alone): NAC 50 mM, TPCK 50 μM, Gliotoxin 0.1 μg/ml, Bisgliotoxin 0.1 μg/ml, medium alone 37; for IL-12, activator: Medium (inhibitor alone): medium alone 147
[6] = test system: ODN-induced cytokine expression; conditions: ELISA on supernatants from DBA/2 spleen cells, 2 × 10^7 cells/ml, 24 hr, ODN at 30 μg/ml; cited from earlier work
[7] = test system: NK LU; conditions: PBMC, phosphorothioate ODN, cited from earlier work
[8] = test system: CpG-induced cytokine secretion; conditions: RALB/c spleen cells, 24 hr, ELISA, cited from earlier work; for IL-12 secretion: 2 × 10^7 cells/ml, indicated ODN alone; for CpG-S-induced IL-12 secretion: IL-12 secretion induced by addition of CpG ODN 1619 at 30 μg/ml
[9] = test system: Murine IL-6 secretion; conditions: cited from earlier work
[10] = test system: NK Lytic Activity; conditions: cited from earlier work
[11] = test system: human B cell proliferation; conditions: human spleen cells or PBNC, ODN at 6 μml, 4-7 days, 3H thymidine, cited from earlier work
[12] = test system: B cell proliferation; conditions: B cell proliferation induced by a stimulatory CpG motif; oligonucleotide added alone or with inhibitory ODN 1735; cited from earlier work
[13] = test system: Mouse Apolipoprotein B/GAPDH mRNA; test: Apolipoprotein B mRNA assay in transfected mouse primary hepatocytes (Example 88); type: cell-based
Experimental: C57BL6 male mice, 7 weeks of age were used to extract and plate mouse primary hepatocytes in 96-well plates (without overlay) (Celsis/Bioreclamation IVT). Transfection of primary hepatocytes was carried out with lipofectin (Life Technologies, cat. No. 18292-037) using the manufacturer's protocol, using 0.5 ul of Lipofectin per 96-plate well. Twelve, 1:3 siRNA duplex dilutions were created starting at 6 uM. 10 ul of 10× oligo was then lipoplexed with a prepared mixture of 9.5 ul of In vitro Gro HI Medium (Celsis Cat. Z99009) serum-free medium and 0.5 ul of Lipofectin per well. After a 10-15 minute incubation, 20 ul of lipoplexed oligo was added to primary hepatocytes in 80 ul of In vitro Gro HI Medium to bring the final volume to 100 ul per well. 24 hours after transfection, cells were lysed.
Total mRNA was purified from cell lysates using MagMAX™-96 Total RNA Isolation Kit (Life Technologies, AM1830); 15 ul of cDNA was synthesized with High Capacity cDNA Reverse Transcription Kit with RNase Inhibitor (Life Technologies, 4374967). Gene expression was evaluated by Real-Time PCR on a Lightcycler 480 (Roche) using a Probes Master Mix (Roche, 04 707 494 001) according to manufacturer's protocol using the following primers: Mouse apolipoprotein B primers:
[Template: (GenBank Accession Number M35186)]
The delta delta Ct method was used to calculate values. […]

[14] = expt. 1 (one donor), US 6,214,806 Table 5
[15] = T cell depleted spleen cells from DBA/2 mice, phosphodiester O-ODN 20 μM, 24 hr, mean ± SD of triplicates
[16] = expt. 1, cells alone 0.00, US 6,239,116 Table 11

Molecule: GM-CSF
- T cell proliferation [1]: 13.3
- CD86 (5 Exp) [2]: 1.9
- CD40 (4 Exp.) [3]: 2.5

Molecule: (Rp)-(Ups)9U
- Tm value of duplex compared with natural-(Up)9U/(Ap)9A [4]: higher Tm value

Molecule: CCN(CC)CCCC(C)Nc1ccnc2cc(Cl)ccc12 (stereo not shown) [Chloroquine, chloroquine, reference compound]
- TNF-α, activator: Medium (inhibitor alone) [5]: 27 pg/mL
- IL-12, activator: Medium (inhibitor alone) [5]: 20 pg/mL

Molecule: 1953 (DNA TCCATGTCGTTCCTGCCGCT; chemistry not given here) [Oligonucleotide 1953]
- ODN-induced cytokine expression IFN-γ [6]: 2000 pg/mL
- ODN-induced cytokine expression IL-6 [6]: 557 pg/mL
- ODN-induced cytokine expression IL-12 [6]: 1854 pg/mL

Molecule: Bafilomycin
- TNF-α, activator: Medium (inhibitor alone) [5]: 46 pg/mL
- IL-12, activator: Medium (inhibitor alone) [5]: 102 pg/mL

Molecule: 19792 (DNA TCCATGTCGTTCCTGTCGTT; phosphorothioate, Z modified cytosine, chemistry not fully specified) [Oligonucleotide 19792]
- NK LU, expt. 1 [7, 14]: 1.32 LU

Molecule: 1896 (DNA CCGGCCGGCCGGCCGGCCGG; chemistry not given here) [Oligonucleotide 1896]
- IL-12 secretion [8]: 292 pg/mL
- CpG-S-induced IL-12 secretion [8]: 2740 pg/mL

Molecule: C[Si](C)(C)C[C@@H](O)[C@@H]1CCCN1 [Compound 5a, (S)-2-(Trimethylsilyl)-1-((S)-1-pyrrolidin-2-yl)ethanol]
- IL-6 [9, 15]: 1096.4 ± 372.0 pg/mL
- IL-6 ([9]; murine IL-6 secretion): 1096.4 ± 372.0 pg/mL

Molecule: 1841 (DNA TCCATAGCGTTCCTAGCGTT; chemistry not given here) [Oligonucleotide 1841]
- NK Lytic Activity (LU) ([10]; human PBMC cultured with ODN 6 μg/ml for 24 hr, lysis of 51Cr-labeled K562 cells): 1.45 LU
- LU (NK lytic activity) ([10]; human PBMC, ODN 6 μg/ml for 24 hr, lysis of Cr-labeled K562 cells, cells alone 0.01): 1.45 LU
- Stimulation Index, expt. 1 ([11]; US 6,214,806 Table 6): 3
- Stimulation Index, expt. 1 ([11]; US 6,239,116 Table 12): 3

Molecule: 2037 (DNA TCCATGCCGTTCCTGCCGTT; chemistry not given here) [Oligonucleotide 2037]
- IL-12 secretion [8]: 423 pg/mL
- CpG-S-induced IL-12 secretion [8]: 2847 pg/mL

Molecule: 5e (DNA ATCGACTCTCGAGCCTTCTC; Z modified cytosine, further chemistry not given here) [Oligonucleotide 5e]
- IL-6 [9, 15]: 851.1 ± 114.4 pg/mL
- IL-6 ([9]; murine IL-6 secretion): 851.1 ± 114.4 pg/mL

Molecule: 5f (DNA ATCGACTCTCGAGCGTTCTC; Z-modified nucleotides, chemistry not fully specified) [Oligonucleotide 5f]
- IL-6 [9, 15]: ≤10 pg/mL
- IL-6 ([9]; murine IL-6 secretion): ≤10 pg/mL

Molecule: 1966 (DNA dT*dC*dG*dT*dC*dG*dC*dT*dG*dT*dC*dT*dC*dC*dG*dC*dT*dT*dC*dT*dT) [Oligonucleotide 1966]
- NK LU, expt. 1 [7, 14]: 2.62 LU
- NK LU, expt. 1 [7, 16]: 2.62 LU

Molecule: CN1C(=O)[C@]23CC4=CC=C[C@H](O)[C@H]4N2C(=O)[C@@]1(CO)SS3 [Gliotoxin]
- TNF-α, activator: Medium (inhibitor alone) [5]: 17 pg/mL

Molecule: 1952 (DNA TCCATGTCGTTCCGCGCGCG; chemistry not given here) [Oligonucleotide 1952]
- ODN-induced cytokine expression IFN-γ [6]: 2135 pg/mL
- ODN-induced cytokine expression IL-6 [6]: 559 pg/mL
- ODN-induced cytokine expression IL-12 [6]: 1615 pg/mL

Molecule: 1990 (DNA dT*dC*dC*dA*dT*dG*dC*dG*dT*dG*dC*dG*dT*dG*dC*dG*dT*dT*dT*dT) [Oligonucleotide 1990]
- NK LU, expt. 1 [7, 14]: 2.10 LU
- NK LU, expt. 1 [7, 16]: 2.10 LU

Molecule: 1720 (DNA 1720 (TCCATGAGCTTCCTGATGCT); as printed in the source, key not given here) [Oligonucleotide 1720]
- cpm (B cell proliferation) [12]: 601 cpm

Molecule: 5d (DNA ATGGAAGGTCCAGTGTTCTC; chemistry not given here) [Oligonucleotide 5d]
- IL-6 [9, 15]: ≤10 pg/mL
- IL-6 ([9]; murine IL-6 secretion): ≤10 pg/mL

Molecule: 1895 (DNA GCGCGCGCGCGCGCGCGCGC; chemistry not given here) [Oligonucleotide 1895]
- IL-12 secretion [8]: 123 pg/mL
- CpG-S-induced IL-12 secretion [8]: 2719 pg/mL

Molecule: 1991 (DNA dT*dC*dC*dA*dT*dG*dC*dG*dT*dT*dG*dC*dG*dT*dT*dG*dC*dG*dT*dT) [Oligonucleotide 1991]
- NK LU, expt. 1 [7, 14]: 0.89 LU
- NK LU, expt. 1 [7, 16]: 0.89 LU

Molecule: (Sp)-(Ups)9U
- Tm value of duplex compared with natural-(Up)9U/(Ap)9A [4]: did not form a duplex

Molecule: 1963 (DNA TCCTTGTCGTTCCTGTCGTT; DNA, all phosphorothioate, methylation of C not given here) [Oligonucleotide 1963]
- NK LU, expt. 1 [7, 14]: 3.42 LU
- NK LU, expt. 1 [7, 16]: 3.42 LU
- Stimulation Index, expt. 1 ([11]; US 6,214,806 Table 6): 3
- Stimulation Index, expt. 1 ([11]; US 6,239,116 Table 12): 3

Molecule: 1959 (DNA GCGGCGGGCGGCGCGCGCCC; chemistry not given here) [Oligonucleotide 1959]
- IL-12 secretion [8]: 270 pg/mL
- CpG-S-induced IL-12 secretion [8]: 2539 pg/mL

Molecule: CC(=O)N[C@@H](CS)C(=O)O [NAC]
- TNF-α, activator: Medium (inhibitor alone) [5]: 10 pg/mL

Molecule: CC[C@@]1([C@@H]2O[C@@H]([C@H]3O[C@@](O)(CO)[C@H](C)C[C@@H]3C)C[C@@H]2C)CC[C@H]([C@]2(C)CC[C@]3(C[C@H](O)[C@@H](C)[C@@H]([C@@H](C)[C@@H](OC)[C@H](C)C(=O)O)O3)O2)O1 [Monensin]
- TNF-α, activator: Medium (inhibitor alone) [5]: 22 pg/mL
- IL-12, activator: Medium (inhibitor alone) [5]: 73 pg/mL

Molecule: Cc1ccc(S(=O)(=O)N[C@@H](Cc2ccccc2)C(=O)CCl)cc1 [TPCK]
- TNF-α, activator: Medium (inhibitor alone) [5]: 24 pg/mL

Molecule: 5c (DNA ATCGACTCTCGAGCGTTCTC; chemistry not fully specified) [Oligonucleotide 5c]
- IL-6 [9, 15]: 1783.0 ± 189.5 pg/mL
- IL-6 ([9]; murine IL-6 secretion): 1783.0 ± 189.5 pg/mL

Molecule: (All(Rp))-GsTs5mCs5mCs5mCsTsGsAsAsGsAsTsGsTs5mCsAsAsTsGs5mC (DNA GTCCCTGAAGATGTCAATGC; chemistry not fully specified) [ONT-82]
- IC50 ([13]; relative IC50, bottom 0 and top 100 constrained, read-out: IC50 for Suppression of Mouse Apolipoprotein B/GAPDH mRNA Levels): 64.4 nM
- Hill Slope ([13]; suppression of ApoB/GAPDH mRNA, bottom 0 and top 100 constrained): −0.3

Molecule: 5b (DNA ATGGAAGGTCCAACGTTCTC; chemistry not given here) [Oligonucleotide 5b]
- IL-6 [9, 15]: 1124.5 ± 126.2 pg/mL
- IL-6 ([9]; murine IL-6 secretion): 1124.5 ± 126.2 pg/mL
